Tests used:
BCAT2 = target: T1, BCAT2 (Homo sapiens, UniProt O15382); test: BCAT2 enzyme inhibition (human); assay type: biochemical
T1 sequence (O15382 28-392): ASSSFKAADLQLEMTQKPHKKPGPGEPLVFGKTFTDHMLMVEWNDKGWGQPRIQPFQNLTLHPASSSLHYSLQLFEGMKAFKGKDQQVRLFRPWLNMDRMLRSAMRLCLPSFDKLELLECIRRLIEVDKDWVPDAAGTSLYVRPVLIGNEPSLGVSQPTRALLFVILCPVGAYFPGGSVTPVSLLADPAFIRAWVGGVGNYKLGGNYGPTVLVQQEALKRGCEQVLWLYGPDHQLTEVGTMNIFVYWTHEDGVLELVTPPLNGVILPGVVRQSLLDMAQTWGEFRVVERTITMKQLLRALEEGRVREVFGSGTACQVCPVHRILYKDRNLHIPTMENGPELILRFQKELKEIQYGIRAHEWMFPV
How it was run: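 Cell-free coupled fluorescent assay: human BCATm converts branched-chain amino acids and α-ketoglutarate to L-glutamate, which L-glutamate oxidase and HRP link to resorufin formation from Amplex Red; activity taken as reduced glutamate signal.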

[1] = 3-HIB assay in vitro, direct MS assay of conditioned media; assay type: cell-based, human; settings: Homo sapiens, 24 h, GM00371 cells, read-out: 3HIB INHIBITION IC50 (μM) MEAN GM00371 cells Direct MS Assay
Experimental: Cell Plating: Cells (Coriell Institute GM00371 cells) were plated (96-well clear bottom sterile plate; Greiner 655098) at 10,000 cells/0.1 mL in Eagle's minimum essential medium (EMEM)/15% FBS (Gibco 16000-044) with a Combi dispenser in a cell culture hood and incubated at 37° C. and 5% CO2 overnight.
Compound Dilution: Compound were prepared as 33.3× intermediate dilution in DMSO in 96 well round polystyrene plates. For 30 μM final maximum start with 30 μL of 10 mM in DMSO. 10-12 1:3 serial dilutions were prepared from left to right (20 μL+40 μL DMSO). A 10× secondary dilution was prepare in EMEM by taking 7.5 μL 33.3× and transfer to replicate 96 well round polystyrene plates and then adding 242.5 μL EMEM A 1× final dilution in EMEM was prepared by taking 50 μL 10× dilution and transferring to replicate 96 well polypropylene assay block (Costar 3956) and adding 450 μL EMEM A control was prepared for maximal compound inhibition by taking 20 μL 10 mM Reference Compound A and adding 40 μL DMSO for a concentration of 3.3 mM To 7.5 μL of the 3.3 mM Reference Compound A solution and added 242.5 μL EMEM to make a 100 μM solution. The subsequent Reference Compound A solution was diluted with EMEM to achieve a final concentration of 10 μM. The structure of Reference Compound A is:
A control was prepared for maximal compound toxicity by taking 7.5 μL Reference Compound B and 242.5 μL EMEM to make […]. 50 μL of that 100 μM Reference Compound B solution was combined with 450 μL EMEM to achieve a concentration of 30 μM. The structure of Reference Compound B is
A DMSO Control was prepared by dilution 7.5 μL with 242.5 μL EMEM and taking 50 μL of the subsequent solution and diluting with 450 μL EMEM.
Compound Treatment: Media was aspirated from the cells and 100 μL of D-PBS (ThermoFisher 14190144) was added and then removed. 100 μL of diluted compound was added to the cells in the place and the cells were incubated at 37° C. and 5% CO2 for 24 hours.
Collection of Conditioned Media: For 3HIB MS detection: 20 μL conditioned media was removed from the cells and was transferred to a labeled replicate 96 well polypropylene assay plate (VWR 62408-946). And the plate was heat sealed and stored at −80° C.
3HIB Derivatization (Generalized SOP): The media collected for 3HIB MS detection was derivatized under the following conditions. Buffer: 0.1M 1-Ethyl-3-(3-dimethylaminopropyl)carbodiimide (EDC) dissolved in 0.1 M 2-(N-morpholino)ethanesulfonic acid ([…]) adjusted to pH 5.6. Buffer prep: weighed 10.6 g MES (Sigma #M-5287) per 500 mL HPLC grade H2O. Stored at 4° C.; 0.1M EDC: Weighed 1.971 g EDC (#E-1769) per 100 mL MES. Adjusted pH to 5.6 with ˜40 drops of 1N NaOH and stored at 4° C. Buffer has a short half-life should be used within two weeks.
Derivatization: To 20 μL sample was added 60 μL 5 uM 3HIB-4C13 internal standard followed by 20 μL EDC in MES and 100 μL MES. The plate was sealed and incubate at 50° C. for […] then centrifuged at 4000 rpm at 6° C. for 10 minutes. LC-MS analysis was then conducted and the data was processed using standard methods.

GM00371 cells = test: Viability assay (Cell titer glo) in the 3-HIB assay; assay type: cell-based, human; settings: Homo sapiens, 24 h, read-out: 3HIB INHIBITION IC50 (μM) MEAN GM00371 cells Viablility Assay
How it was run: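 GM00371 cells (10,000/well, EMEM/15% FBS) were exposed for 24 h at 37 °C to compounds in 1:3 serial dilution from 30 μM top concentration in EMEM. Reference Compound B at 30 μM served as maximal-toxicity control. Viability read as CellTiter-Glo luminescence.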

BCAT1 = target: T2, BCAT1 (Homo sapiens, UniProt P54687); test: BCAT1 enzyme inhibition (human), Glutamate Glo luminescence; assay type: biochemical
T2 sequence (P54687 1-386): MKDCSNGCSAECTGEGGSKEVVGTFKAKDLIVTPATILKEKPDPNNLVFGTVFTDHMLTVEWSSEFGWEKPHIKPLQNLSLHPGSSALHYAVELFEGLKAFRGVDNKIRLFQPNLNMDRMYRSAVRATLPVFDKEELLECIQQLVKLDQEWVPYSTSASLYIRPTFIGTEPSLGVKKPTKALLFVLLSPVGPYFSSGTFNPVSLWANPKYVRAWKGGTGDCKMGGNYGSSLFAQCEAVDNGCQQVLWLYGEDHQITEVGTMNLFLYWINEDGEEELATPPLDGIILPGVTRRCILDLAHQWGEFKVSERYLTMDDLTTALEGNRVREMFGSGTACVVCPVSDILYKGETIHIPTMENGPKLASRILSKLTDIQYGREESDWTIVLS
Experimental: The BCAT1 inhibitory activity of selected compounds of the present disclosure were also evaluated. Compounds were prepared as up to 10 mM stock solutions generally using DMSO as the vehicle. 10-point dose response curves were generated using the Echo-550 (Labcyte) acoustic dispenser. Compound source plates ([…]) were made by serially diluting compound stocks to create 1 mM, 0.1 mM, and 0.01 mM solutions in DMSO into Echo certified LDV plates. The Echo then serially spotted 100% DMSO stock solutions into source dose response plates to generate a semi-log fold dilution scheme. 100% DMSO was added to the spotted dose response plates to bring the final volume to 5 μL, creating a 333× stock plate. 120 nL of the dose response stock plate was then spotted into the assay plate. 10 μL of assay buffer (50 mM Tris with 0.05% TWEEN-20) was then added to the plates resulting in a 4× working concentration in the assay plate. Final assay test concentration range was 3 μM to 0.0001 μM with a final DMSO concentration of 0.3%.
BCAT1 enzyme stock was first diluted to a 4× working concentration of 0.24 μg/mL in assay buffer (final assay concentration is 0.06 ug/ml). 10 μL of the 4×BCAT1 solution was then added to the previously prepared assay plate containing test compound or controls, and incubated at room temperature, protected from light, for either 10 or 60 minutes. After the compound incubation period, 20 μL of assay buffer plus 2× substrate is added to all wells (Final assay concentration of substrates is 300 μM L-leucine and 250 μM alpha-ketoglutaric acid). Enzyme reaction was then incubated for 10 minutes at room temperature. After the 10 minute incubation, the enzymatic reaction was halted with the addition of 5 μL of 0.6N HCl and incubated for 1 min. 5 μL of 1M Tris (pH 8.0) was then added to neutralize pH. 12.5 μL of the quenched assay volume was then transferred to a white, 384 well plate and 12.5 μL of Glutamate detection reagent was added (detection reagent prepared per Promega Glutamate Glo kit instructions). Plates were then incubated for 30 minutes at room temperature, protected from light. After glutamate detection incubation period, luminescence was read on BMG Novostar and relative light units was measured and exported for analysis.
Compound modulation of BCAT1 enzymatic activity was determined as follows. IC50 values were calculated in ActivityBase, using a 4-parameter fit equation. Data was normalized to maximum inhibition form the reference agent VS558CSA (at 10 μM). Relative light units were exported for analysis and % inhibition values for each well were calculated using the following formula: […]

| IC50 (BCAT2) [nM] | IC50 [1] [µM] | IC50 (BCAT1) [nM] | Compound | IC50 (GM00371 cells) [µM] |
| --- | --- | --- | --- | --- |
| 500 to 1000 | ≥ 1 |  | CNC(=O)c1ccc2c(c1)nc(-c1ccccn1)n2[C@@H]1CCC[C@H](NC(=O)c2ccc([N+](=O)[O-])s2)C1 [Compound 107] | ≥ 1 |
| < 100 | ≥ 1 |  | CNC(=O)c1ccc2c(c1)nc(-c1ccccn1)n2[C@@H]1CCC[C@H](NC(=O)c2ccc(C(F)(F)F)s2)C1 [Compound 113] | 0.5 to 1 |
| > 1000 | ≥ 1 |  | CNC(=O)c1ccc2c(c1)nc(-c1ccccn1)n2[C@@H]1CCC[C@H](NC(=O)c2cccc(Br)c2)C1 [Compound 116] | ≥ 1 |
| < 100 | ≥ 1 |  | CNC(=O)c1ccc2c(c1)nc(-c1ccccc1OC)n2[C@H]1CCC[C@@H](NC(=O)c2ccc(C#N)s2)C1 [Compound 124] | ≥ 1 |
| < 100 | 0.1 to 0.5 |  | CNC(=O)c1ccc2c(c1)nc(-c1ccccc1OC)n2[C@H]1CCC[C@@H](NC(=O)c2ccc(Br)s2)C1 [Compound 126] | ≥ 1 |
| 500 to 1000 | ≥ 1 |  | CNC(=O)c1ccc2c(c1)nc(-c1ccccc1SC(F)(F)F)n2[C@H]1CCC[C@@H](NC(=O)c2ccc(C#N)s2)C1 [Compound 127] | ≥ 1 |
| 500 to 1000 | ≥ 1 |  | CNC(=O)c1ccc2c(c1)nc(-c1ccccc1SC(F)(F)F)n2[C@H]1CCC[C@@H](NC(=O)c2ccc(Br)s2)C1 [Compound 128] | ≥ 1 |
| 100 to 500 | ≥ 1 |  | CNC(=O)c1ccc2c(c1)nc(-c1ccccc1NC(C)=O)n2[C@H]1CCC[C@@H](NC(=O)c2ccc(Br)s2)C1 [Compound 129] | ≥ 1 |
| < 100 | 0.1 to 0.5 |  | CNC(=O)c1ccc2c(c1)nc(-c1ccc(F)cc1O)n2[C@H]1CCC[C@@H](NC(=O)c2ccc(C#N)s2)C1 [Compound 188] |  |
| < 100 | 0.1 to 0.5 |  | CNC(=O)c1ccc2c(c1)nc(-c1cccs1)n2[C@H]1CCC[C@@H](NC(=O)c2ccc(Cl)s2)C1 [Compound 189] |  |
| < 100 |  | 100 to 500 | CNC(=O)c1ccc2c(c1)nc(-c1ccccc1C(F)F)n2C1CCC[C@@H](NC(=O)c2ccc(Cl)s2)C1 (stereo partly shown) [Compound 222] | 0.1 to 0.5 |
| < 100 |  | < 100 | CNC(=O)c1ccc2c(c1)nc(-c1ccccc1C(F)F)n2C1CCC[C@@H](NC(=O)c2ccc(Br)s2)C1 (stereo partly shown) [Compound 223] | 0.1 to 0.5 |
| < 100 |  | 100 to 500 | CNC(=O)c1cc2nc(-c3cccc(F)c3)n(C3CCC[C@@H](NC(=O)c4ccc(Cl)s4)C3)c2cc1F (stereo partly shown) [Compound 224] | 0.1 to 0.5 |
| < 100 |  | ≥ 1000 | CNC(=O)c1cc2nc(-c3cccc(F)c3)n(C3CCC[C@@H](NC(=O)c4ccc(F)s4)C3)c2cc1F (stereo partly shown) [Compound 225] | ≥ 1 |
| < 100 |  | 100 to 500 | CNC(=O)c1cc2nc(-c3ccccc3F)n(C3CCC[C@@H](NC(=O)c4ccc(F)s4)C3)c2cc1F (stereo partly shown) [Compound 226] | 0.5 to 1 |
| < 100 |  | 500 to 1000 | CNC(=O)c1cc2nc(-c3sccc3F)n([C@H]3CCC[C@@H](NC(=O)c4ccc(Cl)s4)C3)c2cc1F [Compound 230] | ≥ 1 |
| < 100 |  | 100 to 500 | CNC(=O)c1cc2nc(-c3ccccn3)n(C3COCC(NC(=O)c4ccc(Br)s4)C3)c2cc1F (stereo not shown) [Compound 234, 1-(5-(5-bromothiophene-2-carboxamido)tetrahydro-2H-pyran-3-yl)-6-fluoro-N-methyl-2-(pyridin-2-yl)-1H-benzo[d]imidazole-5-carboxamide] | ≥ 1 |
| 100 to 500 |  | ≥ 1000 | CNC(=O)c1ccc2c(c1)nc(-c1ccccn1)n2[C@H]1C[C@@H](NC(=O)c2ccc(Br)s2)CC(F)(F)C1 [Compound 239] | 0.1 to 0.5 |
| < 100 |  | 100 to 500 | O=C(N[C@@H]1CCC[C@H](n2c(-c3ncccc3F)nc3cnccc32)C1)c1ccc(Br)s1 [Compound 284] | ≥ 1 |
| < 100 |  | 500 to 1000 | O=C(N[C@@H]1CCC[C@H](n2c(-c3ccccc3F)nc3cccnc32)C1)c1ccc(Br)s1 [Compound 285] | 0.5 to 1 |

Reference: US20220274967A1, “BCAT MODULATION” (Icagen, LLC, priority 2019, published 2022)
